According to patent publication US20180273528A1 (LES LABORATOIRES SERVIER, priority 2015, published 2018):
Each block holds one molecule with its values, some of them ahead of it.

Assays:
[1] = target: T1, His-TEV-DYRK1A Kinase domain (aa127-485) (Homo sapiens, UniProt Q13627); experiment: Kinase ADP assay (ADP Hunter), DYRK1A kinase domain; type: biochemical; conditions: 20 μM ATP
T1 construct: His-TEV-DYRK1A Kinase domain (aa127-485); His tag (N); TEV protease cleavage site (N)
Method: The enzyme reaction was conducted in assay buffer (pH 7.4), containing 15 mM Hepes; 20 mM NaCl; 1 mM EGTA; 10 mM MgCl2; 0.02% Tween20 and 0.1 mg/ml Bovine-y-globulin. Test compounds of the invention were added in reaction buffer in a range of concentrations for 10 minutes at 30° C. in the presence of 20 nM DYRK1A enzyme, 40 μM peptide substrate and 20 μM ATP. Detection reagents (DiscoveRx 90-0083), ADP Hunter Plus Reagent A and then ADP Hunter Plus Reagent B were added. After a following 20 minutes incubation at 30° C., ADP Hunter Plus Stop Solution was added. The fluorescence intensity was measured at 590 nm.

[2] = target: DYRK1A (Homo sapiens, UniProt Q13627); experiment: Cellular DYRK1 autophosphorylation assay in U2-OS cells; type: cell-based; set-up: full-length, wild-type human DYRK1A (NM_001396) with an HA tag; expressed in transfected cells; host or cells: human U2-OS osteosarcoma cells, transient transfection of a pcDNA3.1 plasmid; conditions: U2-OS cells transfected with HA-tagged human DYRK1A, 5 hours exposure; read-out: IC50 (μM) P-Ser520-Dyrk1A -Cell assay
Method: On day 2, cells were exposed to a range of concentrations of the test compounds of the invention for 5 hours. […] The relative levels of phospho-Ser520-DYRK1A were assayed using either western blotting or the Mesoscale ELISA platform. For analysis by western blot, lysates were diluted into Laemmli sample buffer (Bio-Rad) containing 5% v/v β-mercaptoethanol, heated for 5 min at 95° C., and resolved on Tris-glycine gels or NuPage Bis-Tris gels (Novex; Invitrogen). Biotinylated molecular weight standards (Cell Signaling Technology) were included in all gels. Proteins were transferred to nitrocellulose membranes (Hybond, ECL; Amersham), which were blocked in Tris-buffered saline/0.1% tween 20 (TBST) containing 5% milk, and probed at 4° C. overnight with anti-phospho-Ser520-DYRK1A antibody (Eurogentec SE6974-75; 0.23 μg/ml in 5% BSA) or anti DYRK1A antibody (Abnova H00001859; 0.5 μg/ml in 5% milk). Peroxidase-conjugated secondary antibodies were diluted into 5% milk and applied to membranes for 1 h at 20° C. Chemiluminescence detection was performed using the ECL plus western blotting detection kit (Amersham) and was recorded on ECL plus hyperfilm (Amersham). Blots were scanned using the Bio-Rad GS-800 calibrated densitometer and quantitative analysis of western blots was performed using TotalLab software (Amersham). IC50 values for inhibition of phospho-Ser520-DYRK1A were calculated from dose-response curves plotting the ratio between phospho-Ser520-DYRK1A and total DYRK1A signals at each concentration. […] Anti-phospho-Ser520-DYRK1A antibody (Eurogentec SE6974-75; […]) and anti DYRK1A antibody (Abnova H00001859; 3 μg/ml) was then added for 1 hour at RT, followed by addition of Sulfa-TAG anti-rabbit detection antibody (ref MSD R32AB; 1 μg/ml) and Sulfa-TAG anti-mouse detection antibody (ref MSD R32-AC-1; 1 μg/ml). After a further 1 hour, Read Buffer was added and plates were read on the Sector Imager 2400 (Mesoscale). IC50 values for inhibition of phospho-Ser520-DYRK1A were calculated from dose-response curves.

IC50 [1]: 0.01 µM
IC50 [2]: 0.082 µM
Structure (SMILES): Cc1nc2ccc(-c3cc(N)nc(N)c3)nc2n1C[C@H](C)Oc1cccc(F)c1 (single isomer, unassigned) [Example 123]

IC50 [1]: 0.006 µM
IC50 [2]: 0.061 µM
Structure (SMILES): Cc1nc2ccc(-c3cc(N)nc(N)c3)nc2n1C[C@@H](C)Oc1cccc(F)c1 (single isomer, unassigned) [Example 124]

IC50 [1]: 0.022 µM
IC50 [2]: 0.151 µM
Structure (SMILES): COc1cccc(O[C@@H](C)Cn2c(C)nc3ccc(-c4cc(N)nc(N)c4)nc32)c1 (single isomer, unassigned) [Example 125]

IC50 [1]: 0.055 µM
IC50 [2]: 0.271 µM
Structure (SMILES): COc1cccc(O[C@H](C)Cn2c(C)nc3ccc(-c4cc(N)nc(N)c4)nc32)c1 (single isomer, unassigned) [Example 126]

IC50 [1]: 0.037 µM
IC50 [2]: 0.163 µM
Structure (SMILES): Cc1cccc(O[C@H](C)Cn2c(C)nc3ccc(-c4cc(N)nc(N)c4)nc32)c1 (single isomer, unassigned) [Example 128]

IC50 [1]: 0.037 µM
IC50 [2]: 0.13 µM
Structure (SMILES): Cc1nc2ccc(-c3cc(N)nc(N)c3)nc2n1C[C@H](C)Oc1ccc(F)cc1 (single isomer, unassigned) [Example 129]

IC50 [1]: 0.016 µM
IC50 [2]: 0.045 µM
Structure (SMILES): Cc1ccccc1O[C@@H](C)Cn1c(C)nc2ccc(-c3cc(N)nc(N)c3)nc21 (single isomer, unassigned) [Example 131]

IC50 [1]: 0.038 µM
IC50 [2]: 0.207 µM
Structure (SMILES): Cc1ccccc1O[C@H](C)Cn1c(C)nc2ccc(-c3cc(N)nc(N)c3)nc21 (single isomer, unassigned) [Example 132]

IC50 [1]: 0.015 µM
IC50 [2]: 0.074 µM
Structure (SMILES): Cc1nc2ccc(-c3cc(N)nc(N)c3)nc2n1C[C@H](C)Oc1ccccc1F (single isomer, unassigned) [Example 133]

IC50 [1]: 0.038 µM
IC50 [2]: 0.205 µM
Structure (SMILES): Cc1nc2ccc(-c3cc(N)nc(N)c3)nc2n1C[C@@H](C)Oc1ccccc1F (single isomer, unassigned) [Example 134]

IC50 [1]: 0.016 µM
IC50 [2]: 0.098 µM
Structure (SMILES): Cc1nc2ccc(-c3cc(N)nc(N)c3)nc2n1C[C@H](C)Sc1ccccc1 (single isomer, unassigned) [Example 135]

IC50 [1]: 0.028 µM
IC50 [2]: 0.247 µM
Structure (SMILES): Cc1nc2ccc(-c3cc(N)nc(N)c3)nc2n1C[C@@H](C)Sc1ccccc1 (single isomer, unassigned) [Example 136]

IC50 [1]: 0.048 µM
IC50 [2]: 0.197 µM
Structure (SMILES): Cc1nc2ccc(-c3cc(N)nc(N)c3)nc2n1[C@H]1C[C@H]1Cc1ccccc1 (single isomer, unassigned) [Example 137]

IC50 [1]: 0.052 µM
IC50 [2]: 0.1 µM
Structure (SMILES): Cc1nc2ccc(-c3cc(N)nc(N)c3)nc2n1[C@H]1C[C@@H]1Cc1ccccc1 (single isomer, unassigned) [Example 138]

IC50 [1]: 0.007 µM
IC50 [2]: 0.024 µM
Structure (SMILES): Cc1nc2ccc(-c3cc(N)nc(N)c3)nc2n1[C@@H]1C[C@@H]1Cc1ccccc1 (single isomer, unassigned) [Example 140]

IC50 [1]: 0.01 µM
IC50 [2]: 0.191 µM
Structure (SMILES): COc1ccccc1O[C@@H](C)Cn1c(C)nc2ccc(-c3cc(N)nc(N)c3)nc21 (single isomer, unassigned) [Example 141]

IC50 [1]: 0.093 µM
IC50 [2]: 0.223 µM
Structure (SMILES): Cc1nc2ccc(-c3cc(N)nc(N)c3)nc2n1C[C@H](C)Oc1cccc(Cl)n1 (single isomer, unassigned) [Example 176]

IC50 [1]: 0.023 µM
IC50 [2]: 0.237 µM
Structure (SMILES): Cc1nc2ccc(-c3cc(N)nc(N)c3)nc2n1C[C@@H](C)Oc1ccc(F)cn1 (single isomer, unassigned) [Example 179]

IC50 [1]: 0.026 µM
IC50 [2]: 0.175 µM
Structure (SMILES): Cc1nc2ccc(-c3cc(N)nc(N)c3)nc2n1C[C@H](C)Oc1ncccc1Br (single isomer, unassigned) [Example 182]

IC50 [1]: 0.065 µM
IC50 [2]: 0.181 µM
Structure (SMILES): Cc1nc2ccc(-c3cc(N)nc(N)c3)nc2n1C[C@H](C)Oc1cccc(F)n1 (single isomer, unassigned) [Example 188]

IC50 [1]: 0.032 µM
IC50 [2]: 0.148 µM
Structure (SMILES): Cc1nc2ccc(-c3cc(N)nc(N)c3)nc2n1C[C@H](C)Oc1ncccc1Cl (single isomer, unassigned) [Example 190]

Continued, molecule first:

Structure (SMILES): Cc1nc2ccc(-c3cc(N)nc(N)c3)nc2n1CC1Cc2ccccc21 (single isomer, unassigned) [Example 113, 4-[3-(bicyclo[4.2.0]octa-1,3,5-trien-7-ylmethyl)-2-methyl-3H-imidazo[4,5-b]pyridin-5-yl]pyridine-2,6-diamine]
IC50 [1]: 0.01 µM
IC50 [2]: 0.243 µM

Structure (SMILES): Cc1nc2ccc(-c3cc(N)nc(N)c3)nc2n1C[C@H](C)Oc1ccccc1Cl (single isomer, unassigned) [Example 117]
IC50 [1]: 0.006 µM
IC50 [2]: 0.075 µM

Structure (SMILES): CC[C@@H](Cn1c(C)nc2ccc(-c3cc(N)nc(N)c3)nc21)Oc1ccccc1 (single isomer, unassigned) [Example 119]
IC50 [1]: 0.004 µM
IC50 [2]: 0.105 µM

Structure (SMILES): CC[C@H](Cn1c(C)nc2ccc(-c3cc(N)nc(N)c3)nc21)Oc1ccccc1 (single isomer, unassigned) [Example 120]
IC50 [1]: 0.003 µM
IC50 [2]: 0.161 µM

Structure (SMILES): Cc1nc2ccc(-c3cc(N)nc(N)c3)nc2n1C[C@@H](C)N(C)c1ccccc1 (single isomer, unassigned) [Example 121]
IC50 [1]: 0.008 µM
IC50 [2]: 0.041 µM

Structure (SMILES): Cc1nc2ccc(-c3cc(N)nc(N)c3)nc2n1C[C@H](C)N(C)c1ccccc1 (single isomer, unassigned) [Example 122]
IC50 [1]: 0.02 µM
IC50 [2]: 0.122 µM

Structure (SMILES): Cc1nc2ccc(-c3cc(N)nc(N)c3)nc2n1CCc1ccc2c(c1)OCCO2 [Example 77, 4-{3-[2-(2,3-dihydro-1,4-benzodioxin-6-yl)ethyl]-2-methyl-3H-imidazo[4,5-b]pyridin-5-yl}pyridine-2,6-diamine]
IC50 [1]: 0.008 µM
IC50 [2]: 0.077 µM

Structure (SMILES): Cc1nc2ccc(-c3cc(N)nc(N)c3)nc2n1CCc1ccccc1 [Example 83, 4-[2-methyl-3-(2-phenylethyl)-3H-imidazo[4,5-b]pyridin-5-yl]pyridine-2,6-diamine]
IC50 [1]: 0.007 µM
IC50 [2]: 0.037 µM

Structure (SMILES): Cc1nc2ccc(-c3cc(N)nc(N)c3)nc2n1Cc1ccnc(F)c1 [Example 84, 4-{3-[(2-fluoropyridin-4-yl)methyl]-2-methyl-3H-imidazo[4,5-b]pyridin-5-yl}pyridine-2,6-diamine]
IC50 [1]: 0.019 µM
IC50 [2]: 0.113 µM

Structure (SMILES): Cc1nc2ccc(-c3cc(N)nc(N)c3)nc2n1CCC1CCCO1 (stereo not shown) [Example 85, 4-{2-methyl-3-[2-(tetrahydrofuran-2-yl)ethyl]-3H-imidazo[4,5-b]pyridin-5-yl}pyridine-2,6-diamine]
IC50 [1]: 0.016 µM
IC50 [2]: 0.143 µM

Structure (SMILES): Cc1nc2ccc(-c3cc(N)nc(N)c3)nc2n1CC1CC1C (stereo not shown) [Example 86, 4-{2-methyl-3-[(2-methylcyclopropyl)methyl]-3H-imidazo[4,5-b]pyridin-5-yl}pyridine-2,6-diamine]
IC50 [1]: 0.019 µM
IC50 [2]: 0.151 µM

Structure (SMILES): CCC1(Cn2c(C)nc3ccc(-c4cc(N)nc(N)c4)nc32)CC1 [Example 88, 4-{3-[(1-ethylcyclopropyl)methyl]-2-methyl-3H-imidazo[4,5-b]pyridin-5-yl}pyridine-2,6-diamine]
IC50 [1]: 0.012 µM
IC50 [2]: 0.103 µM

Structure (SMILES): COc1cccc2c1CCC(n1c(C)nc3ccc(-c4cc(N)nc(N)c4)nc31)C2 (stereo not shown) [Example 93, 4-[3-(5-methoxy-1,2,3,4-tetrahydronaphthalen-2-yl)-2-methyl-3H-imidazo[4,5-b]pyridin-5-yl]pyridine-2,6-diamine]
IC50 [1]: 0.007 µM
IC50 [2]: 0.107 µM

Structure (SMILES): Cc1nc2ccc(-c3cc(N)nc(N)c3)nc2n1CC1CC1(C)C (stereo not shown) [Example 99, 4-{3-[(2,2-dimethylcyclopropyl)methyl]-2-methyl-3H-imidazo[4,5-b]pyridin-5-yl}pyridine-2,6-diamine]
IC50 [1]: 0.016 µM
IC50 [2]: 0.104 µM
